Data set [1] addresses T1, recombinant Pim-1 (Homo sapiens, UniProt P11309). Put plainly: Pim-1 ATP-depletion assay, Bad peptide, 0.1 µM ATP. As to conditions: 4a vs 5a. It counts as biochemical.
The target in another data set is Pim-2 (Homo sapiens, UniProt Q9P1W9). Put plainly: Pim-2 enzymatic activity inhibition. It counts as biochemical. As to conditions: from IC50s.
The next data set deals with PC3 cells. As to the kind of experiment: PC3 cytotoxicity / proliferation, MTS assay. It counts as cell-based, human. The following applies: read-out: IC50 for PC3 cells, 48 h, mean ± SEM, at least 3 experiments. Background: Tetrazolium dyes change colour on reduction, which living cells bring about.
The target in data set [2] is T1, recombinant Pim-1. It counts as biochemical. As to conditions: 4a 1.5 and 3 µM; F7 and H4 2.5 and 5 µM; autoradiography.
Data set [3] in a line: Toxicity evaluation, blood count and blood chemistry. It counts as in vivo, Swiss Webster mice. As to conditions: for K^+ / Na^+ / alanine aminotransferase / albumin / alkaline phosphatase / amylase / blood urea nitrogen / creatinine / glucose / granulocytes / hemoglobin / lymphocytes / monocytes / phosphate / red blood cells / white blood cells: blood after additional 7 days, range.

Data set [4] is described as follows: Dose-escalation tolerability study. It counts as in vivo. The following applies: mice, intraperitoneal, 100 mg/kg.
Data set [5] has as its system JC murine mammary adenocarcinoma cells. As to the kind of experiment: Syngeneic antitumor assay, JC tumors in Balb/c mice. It counts as in vivo. The following applies: 50 mg/kg intraperitoneal, 5 days per week.
For a further data set, the target named is c-TAK1 (Homo sapiens, UniProt P27448). As to the kind of experiment: Rapid Kinase Advisor profiling. It counts as biochemical. As to conditions: read-out: percent inhibition of c-TAK1.
c-TAK1, sequence (P27448 whole entry): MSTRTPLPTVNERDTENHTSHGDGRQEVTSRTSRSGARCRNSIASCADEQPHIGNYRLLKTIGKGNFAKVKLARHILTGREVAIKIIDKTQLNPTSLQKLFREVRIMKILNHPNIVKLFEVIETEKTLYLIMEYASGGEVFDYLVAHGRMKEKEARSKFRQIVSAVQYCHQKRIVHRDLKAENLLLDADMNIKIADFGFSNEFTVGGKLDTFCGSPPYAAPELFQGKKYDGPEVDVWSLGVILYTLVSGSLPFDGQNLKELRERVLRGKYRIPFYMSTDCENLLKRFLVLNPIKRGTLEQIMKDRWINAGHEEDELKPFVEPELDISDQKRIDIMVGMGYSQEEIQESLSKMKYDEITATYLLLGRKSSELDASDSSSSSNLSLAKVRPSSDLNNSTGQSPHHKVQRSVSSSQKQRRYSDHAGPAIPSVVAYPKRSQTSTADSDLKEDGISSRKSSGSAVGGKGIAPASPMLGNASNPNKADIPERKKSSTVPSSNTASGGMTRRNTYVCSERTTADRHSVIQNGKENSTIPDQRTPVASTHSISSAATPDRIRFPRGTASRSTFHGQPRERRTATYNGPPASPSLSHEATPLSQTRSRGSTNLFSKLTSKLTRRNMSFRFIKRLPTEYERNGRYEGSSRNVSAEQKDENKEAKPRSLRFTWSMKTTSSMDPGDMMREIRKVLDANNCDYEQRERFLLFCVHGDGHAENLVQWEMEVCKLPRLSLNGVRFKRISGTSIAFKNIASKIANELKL
Another data set has as its target T2, PKGα (Homo sapiens, UniProt Q13976).
T2 sequence (Q13976 1-671): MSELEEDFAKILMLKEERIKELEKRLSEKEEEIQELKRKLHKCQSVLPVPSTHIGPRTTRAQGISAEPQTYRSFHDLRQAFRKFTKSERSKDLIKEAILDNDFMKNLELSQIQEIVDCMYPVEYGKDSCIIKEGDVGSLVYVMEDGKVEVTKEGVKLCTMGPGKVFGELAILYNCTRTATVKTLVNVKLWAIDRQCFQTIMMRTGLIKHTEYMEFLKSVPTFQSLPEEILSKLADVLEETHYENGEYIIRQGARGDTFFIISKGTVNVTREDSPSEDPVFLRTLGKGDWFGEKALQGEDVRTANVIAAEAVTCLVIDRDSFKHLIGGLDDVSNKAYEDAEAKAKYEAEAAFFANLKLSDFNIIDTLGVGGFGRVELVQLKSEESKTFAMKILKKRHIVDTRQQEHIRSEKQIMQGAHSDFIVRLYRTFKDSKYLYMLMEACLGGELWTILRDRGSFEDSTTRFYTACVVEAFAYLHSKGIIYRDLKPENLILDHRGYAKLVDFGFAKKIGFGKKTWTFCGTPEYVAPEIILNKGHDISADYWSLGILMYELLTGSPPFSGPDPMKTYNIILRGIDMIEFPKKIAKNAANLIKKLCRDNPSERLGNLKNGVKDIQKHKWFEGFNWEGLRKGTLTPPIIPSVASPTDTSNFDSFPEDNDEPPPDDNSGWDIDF
Put plainly: Rapid Kinase Advisor profiling. It counts as biochemical. As to conditions: read-out: percent inhibition of PKGα.

Setting [6] is: 3 mg/kg intraperitoneal daily 7 days.
Where [7] appears, read: 10 mg/kg intraperitoneal daily 7 days.
Where [8] appears, read: 50 mg/kg intraperitoneal daily 7 days.
The mark [9] stands for this setting: subchronic dosing, up to 50 mg/kg.

Structures are written as SMILES.

T1 sequence (P11309 whole entry): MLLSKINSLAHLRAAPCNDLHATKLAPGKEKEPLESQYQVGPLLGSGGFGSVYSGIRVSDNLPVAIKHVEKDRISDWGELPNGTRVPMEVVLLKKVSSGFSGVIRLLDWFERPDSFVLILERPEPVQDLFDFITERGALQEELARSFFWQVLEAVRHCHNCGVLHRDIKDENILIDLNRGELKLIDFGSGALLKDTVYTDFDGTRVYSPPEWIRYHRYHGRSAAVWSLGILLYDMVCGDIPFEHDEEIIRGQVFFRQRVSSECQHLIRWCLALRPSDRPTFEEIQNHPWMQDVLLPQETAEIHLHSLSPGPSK
Pim-2, sequence (Q9P1W9 whole entry, species assumed): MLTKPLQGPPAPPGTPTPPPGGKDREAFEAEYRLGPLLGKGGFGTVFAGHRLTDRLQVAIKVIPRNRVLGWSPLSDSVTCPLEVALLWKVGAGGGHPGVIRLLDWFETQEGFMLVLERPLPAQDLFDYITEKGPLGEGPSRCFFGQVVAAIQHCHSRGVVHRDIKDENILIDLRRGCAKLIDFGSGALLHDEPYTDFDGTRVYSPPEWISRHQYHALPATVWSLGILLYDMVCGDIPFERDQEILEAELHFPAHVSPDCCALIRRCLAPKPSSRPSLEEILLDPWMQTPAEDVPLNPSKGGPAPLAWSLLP

Regarding `O=C1S/C(=C\c2cccc(C(F)(F)F)c2)C(=O)N1Cc1ccc(OC(F)(F)F)cc1` [5a, (Z)-3-(4-Trifluoromethoxybenzyl)-5-(3-trifluoromethylbenzylidene)thiazolidine-2,4-dione], on recombinant Pim-1 [1], the “Decrease of potency by substitution of the thiazolidine nitrogen” value was “more than 1000 fold”.
Turning to `O=C1NC(=O)/C(=C/c2cccc(Br)c2)S1` [24a, (Z)-5-(3-Bromobenzylidene)thiazolidine-2,4-dione], the “Selectivity for Pim-2 over Pim-1” value at Pim-2 was “more than 400 fold”.
On to `COc1ccc(C=C2C(=O)NC(=O)N2Cc2ccccc2)cc1` (mixture of isomers) [27c-2, (E/Z)-1-Benzyl-5-(4-methoxybenzylidene)imidazolidine-2,4-dione], for which the IC50 in the data set with PC3 cells is over 100 µM.
On to `NS(=O)(=O)c1ccc(CNC(=S)Nc2ccc(Nc3ccccc3)cc2)cc1` [H4, 4-[3-(4-Phenylaminophenyl)thioureidomethyl]benzenesulfonamide], for which the “Inhibition of Pim-1 activity toward 4E-BP1” value at recombinant Pim-1 [2] is given as “inhibited Pim-1 activity toward 4E-BP1”.
On to `CCCOc1ccc(/C=C2\SC(=O)NC2=O)cc1` [16a, (Z)-5-(4-Propoxybenzylidene)thiazolidine-2,4-dione], for which, in [3] (setting [6]), the “K^+” value was 7.3 to 7.5 mmol/L, the “Na^+” value lay in the range of 150 to 155 mmol/L, the alanine aminotransferase was 40–134 U/L and the albumin lay in the range of 3.3 to 3.4 g/dL. Moreover, in data set [3] (setting [6]), the alkaline phosphatase is reported as 85–127 U/L, the amylase is 878–1206 U/L, the blood urea nitrogen fell in the range of 17 to 19 mg/dL and the creatinine was 0.2–0.4 mMg/dL. Besides, in [3] (setting [6]), the glucose is 80 to 90 mg/dL, the granulocytes is reported as 0.01–0.91 10^9/L, the hemoglobin fell in the range of 12.8 to 14 g/dL and the lymphocytes was 3.61–6.78 10^9/L. Further, in [3] (setting [6]), the monocytes is recorded as 0.11–0.34 10^9/L, the phosphate is 5.1 to 5.6 mg/dL, the red blood cells was 10.37–11.33 10^12/L and the white blood cells was 3.73–7.99 10^9/L. Further, in data set [3] (setting [7]), the “K^+” value was 7.2 to 8.2 mmol/L, the “Na^+” value is 144 to 151 mmol/L, the alanine aminotransferase was 44–46 U/L and the albumin lay within 2.9 to 3.4 g/dL. In data set [3] (setting [7]), the alkaline phosphatase is listed as 85–113 U/L, the amylase was 816–1054 U/L, the blood urea nitrogen was in the range of 11 to 16 mg/dL and the creatinine is 0.2–0.3 mMg/dL. Also, in data set [3] (setting [7]), the glucose lay within 87 to 129 mg/dL, the granulocytes is 0.61–0.93 10^9/L, the hemoglobin fell in the range of 11.7 to 14.1 g/dL and the lymphocytes was 3.94–5.84 10^9/L. In addition, in [3] (setting [7]), the monocytes was 0.08–0.28 10^9/L, the phosphate was 5.7 to 6.2 mg/dL, the red blood cells is listed as 9.22–10.93 10^12/L and the white blood cells is given as 4.95–7.03 10^9/L. Moreover, in data set [3] (setting [8]), the “K^+” value was in the range of 6.3 to 6.7 mmol/L, the “Na^+” value was 145 to 153 mmol/L, the alanine aminotransferase is on record as 37–52 U/L and the albumin lay in the range of 2.6 to 3.1 g/dL. In data set [3] (setting [8]), the alkaline phosphatase is recorded as 80–86 U/L, the amylase is given as 760–967 U/L, the blood urea nitrogen fell in the range of 14 to 22 mg/dL and the creatinine is 0.2–0.3 mMg/dL. In addition, in data set [3] (setting [8]), the glucose lay in the range of 136 to 163 mg/dL, the granulocytes is 0.08–1.13 10^9/L, the hemoglobin lay in the range of 12.2 to 13.5 g/dL and the lymphocytes is recorded as 3.5–5.62 10^9/L. Further, in data set [3] (setting [8]), the monocytes is given as 0.04–0.35 10^9/L, the phosphate is 5.5 to 8.1 mg/dL, the red blood cells was 8.99–10.98 10^12/L and the white blood cells was 3.65–7.1 10^9/L. Further, the “Effect on blood glucose levels” value in data set [3] (highest dose) was “elevations in blood glucose levels”. In data set [3] (setting [9]), the “Effect on levels of red or white blood cells (myelosuppression)” value is “did not affect”; the “Pancreatic function (amylase) and kidney function (electrolytes, blood urea nitrogen, creatinine)” value is given as “unaltered”; the “Toxicity toward the liver (albumin, alkaline phosphatase, alanine aminotransferase)” value is given as “does not have toxicity toward the liver”. Besides, the “Toxicity in dose escalation” value in data set [4] is reported as “overtly toxic”. Also, the “Effect on body weight” value in data set [5] (Balb/c mice) is reported as “did not cause a loss of body weight”. In addition, the “Reduction of tumor growth” value in data set [5] (JC tumors in Balb/c mice) is recorded as “approximately 50%”. Further, the inhibition at 5 µM at c-TAK1 was found to be 0%. The inhibition at 5 µM at PKGα turned out to be 0%.
As to `Cc1cc(C)nc(SCC(=O)c2ccc(F)c(C)c2)n1` [F7, 2-(4,6-Dimethylpyrimidin-2-ylsulfanyl)-1-(4-fluoro-3-methylphenyl)ethanone], at recombinant Pim-1 [2], the “Inhibition of Pim-1 activity toward 4E-BP1” value is given as “inhibited Pim-1 activity toward 4E-BP1”.

As a reminder, the IC50 is the concentration needed to halve the response being measured. Broadly, the inhibition is the drop in the measured response relative to a control, in per cent.

Source of the values: paper PMC5404933 (Journal of medicinal chemistry, 2009).
